Measured values taken from patent US12227782B2, “Method for producing protein” (priority 2018, dated 2025).

System: Trichoderma reesei X3AB1 strain
Assay: Test 1/Test 2: amount of protein produced (Bradford method) in culture supernatant
Type: cell-based
Experimental: Trichoderma reesei X3AB1 strain (J. Ind. Microbiol. Biotechnol., 2012, 174: 1-9; hereinafter, referred to as X3AB1 strain) was cultured in a cellulose-containing culture medium to produce a protein containing a cellulase. As preculture, 50 mL of a culture medium was added to a 500 mL flask, spores of X3AB1 strain were inoculated at 1×10^5 cells/mL, and shaking culture was performed at 220 rpm (PRXYg-98R from PRECI CO., LTD.) at 28° C. The culture medium composition was as follows: 1% glucose, 0.14% (NH4)2SO4, 0.2% KH2PO4, 0.03% CaCl2·2H2O, 0.03% MgSO4·7H2O, 0.1% Bacto Peptone (BD Difco), 0.05% Bacto Yeast extract (BD Difco), 0.1% TWEEN® 80 (polysorbate 80), 0.1% Trace element and 50 mM tartrate buffer (pH 4.0). The composition of the Trace element was as follows: 6 mg of H3BO3, 26 mg of (NH4)6Mo7O24·4H2O, 100 mg of FeCl3·6H2O, 40 mg of CuSO4·5H2O, 8 mg of MnCl2·4H2O and 200 mg of ZnCl2 which were diluted to 100 mL with distilled water.
Main culture was performed after 2 days of preculture. […]
The culture solutions obtained in Comparative Example 1 and Examples 1 and 2 were centrifuged. […] The concentration of protein in the supernatant was measured by the Bradford method. The protein concentration of the supernatant was calculated on the basis of a calibration curve with bovine γ-globulin as standard protein using Quick Start Protein Assay (BioRad) based on the Bradford method, and the protein concentration was defined as an amount of protein produced. […]
For the culture solutions obtained from Comparative Examples 2 and 3 and Examples 3 to 6, the amount of protein produced was measured in the same manner as in Test 1. […]

Compound: N[C@@H]1O[C@H](CO)[C@@H](O)[C@H](O)[C@H]1O [β-D-glucopyranosylamine]
- increase of maximum amount of protein produced as compared to Comparative Example 1 (Example 1: 0.5% added to initial culture medium of main culture, maximum on day 3 of culture, 10% powder cellulose medium): ≥ 20%
- increase of maximum amount of protein produced as compared to Comparative Example 1 (Example 2: 8% aqueous solution fed 0.6 g/L initial culture medium/hr at 15-63 hr (total 0.2%), maximum on day 4 of culture): ≥ 20%
- protein productivity as the amount added in the culture increased (Examples 3 to 6: fed together with glucose (38% glucose/2% or 35% glucose/5% aqueous solution) versus 40% glucose feed (Comparative Examples 2 and 3)): tended to be improved
